{"source": "patent US9981946B2", "about": "“Pyridine-substituted 2-aminopyridine protein kinase inhibitors” (CHIA TAI TIANQING PHARMACEUTICAL GROUP CO., LTD, priority 2014, dated 2018)", "test_system": "human non-small cell lung carcinoma NCI-H2228 xenografts", "test": "Therapeutic effect on NCI-H2228 xenografts in nude mice", "type": "in vivo", "settings": "D0-13 once a day; for Average tumor volume D0: D0 baseline at grouping", "method": "The following experimental method was used: Nude mice was inoculated subcutaneously with human non-small cell lung carcinoma NCI-H2228 cells, the mice were randomly grouped (D0) and administered until the tumor grew to 80-200 mm^3. Measuring the tumor volume, weighing the mice, and recording the data twice a week. Tumor volume (V) was calculated as:\n[…], wherein a and b represented length and width respectively.\nT/C(%)=(T-T0)/(C-C0)×100, wherein T, C respectively represented the tumor volume at the end of the experiment; T0, C0 respectively represented the tumor volume at the start of the experiment.\nWhen tumor regression was observed, T/C(%)=(T-T0)/T0×100, wherein T was the tumor volume at the end of the experiment; T0 was the tumor volume at the start of the experiment.\nIn the table: the solvent group (distilled water containing 0.1% Tween-80) was a control group, the compound of the treatment groups was formulated with distilled water containing 0.1% Tween-80.\nD0-20 represented administrating once a day from day 0 (D0) for consecutive 21 days; D0-13 represented administrating once a day from day 0 (D0) for consecutive 14 days.\nP value was obtained from student's t test compared with the control group.\nn was the number of mice, for the control group, the number of test mice n was 12, and n was 6 for the treatment group.", "data": [{"smiles": "COc1cc(N2CCNC[C@@H]2C)ncc1-c1cnc(N)c(O[C@H](C)c2c(Cl)ccc(F)c2Cl)c1", "note": "[compound of formula I, 5-((R)-1-(2,6-dichloro-3-fluorophenyl)ethoxy)-4′-methoxy-6′-((S)-2-methylpiperazin-1-yl)-3,3′-bipyridin-6-amine]", "values": [{"measurement": "Average tumor volume D0", "setting": "12.5 mg/kg PO", "value": 134.3, "unit": "mm^3"}, {"measurement": "% T/C D21", "setting": "12.5 mg/kg PO, D21", "value": 22, "unit": "%"}, {"measurement": "Average tumor volume D21", "setting": "12.5 mg/kg PO, D21", "value": 394.8, "unit": "mm^3"}, {"measurement": "% Inhibition rate D21", "setting": "12.5 mg/kg PO, D21, 100-T/C(%)", "value": 78, "unit": "%"}, {"measurement": "Average tumor volume D0", "setting": "25 mg/kg PO", "value": 131.0, "unit": "mm^3"}, {"measurement": "Average tumor volume D21", "setting": "25 mg/kg PO, D21", "value": 21.7, "unit": "mm^3"}, {"measurement": "% T/C D21", "setting": "25 mg/kg PO, D21, tumor regression, T/C=(T-T0)/T0×100", "value": "−83", "unit": "%"}]}]}
